The structures appear in SMILES notation.

In the test the target is PIK3CD (Human) (UniProt O00329). The experiment in a line: Enzyme Assay.
Chain of PIK3CD (Human) (O00329 whole entry, looked up): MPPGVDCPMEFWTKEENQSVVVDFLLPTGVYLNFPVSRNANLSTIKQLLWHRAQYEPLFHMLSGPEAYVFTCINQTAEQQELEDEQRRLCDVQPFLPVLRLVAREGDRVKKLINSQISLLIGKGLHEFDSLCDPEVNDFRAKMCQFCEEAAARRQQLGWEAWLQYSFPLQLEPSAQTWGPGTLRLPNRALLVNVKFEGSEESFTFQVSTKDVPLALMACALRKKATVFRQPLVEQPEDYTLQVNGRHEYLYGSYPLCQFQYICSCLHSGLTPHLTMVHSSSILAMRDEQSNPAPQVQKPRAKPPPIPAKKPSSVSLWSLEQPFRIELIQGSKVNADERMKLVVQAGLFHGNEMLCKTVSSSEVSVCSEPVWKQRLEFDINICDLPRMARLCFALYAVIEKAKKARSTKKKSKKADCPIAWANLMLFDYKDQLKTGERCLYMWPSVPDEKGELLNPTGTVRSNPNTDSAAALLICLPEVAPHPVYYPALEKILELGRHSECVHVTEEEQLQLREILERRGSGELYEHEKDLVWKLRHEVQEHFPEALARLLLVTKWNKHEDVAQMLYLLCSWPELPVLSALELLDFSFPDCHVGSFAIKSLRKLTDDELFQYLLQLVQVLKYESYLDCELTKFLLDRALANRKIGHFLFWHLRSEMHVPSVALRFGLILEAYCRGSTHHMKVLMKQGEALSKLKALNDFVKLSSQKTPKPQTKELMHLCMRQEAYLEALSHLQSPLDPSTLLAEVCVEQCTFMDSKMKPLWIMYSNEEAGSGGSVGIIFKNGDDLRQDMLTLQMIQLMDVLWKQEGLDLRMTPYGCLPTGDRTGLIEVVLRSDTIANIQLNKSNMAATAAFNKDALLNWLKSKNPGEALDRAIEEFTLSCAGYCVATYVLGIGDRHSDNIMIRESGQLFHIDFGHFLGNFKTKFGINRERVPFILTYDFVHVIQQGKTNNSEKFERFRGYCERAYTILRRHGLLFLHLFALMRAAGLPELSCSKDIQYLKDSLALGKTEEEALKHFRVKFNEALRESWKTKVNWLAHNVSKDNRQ
In the case of `C[C@H](Nc1nc(N)nc(N)c1C#N)c1nc2c(Cl)cccc2c(=O)n1-c1ccccc1`, the IC50 lay in the range of 1 to 10 nM.
As to `C[C@H](Nc1nc(N)nc(N)c1C#N)c1nc2cccc(S(C)(=O)=O)c2c(=O)n1-c1ccccc1`, the IC50 lay within 1 to 10 nM.
Under `Cc1cccc2nc([C@H](C)Nc3nc(N)nc(N)c3C#N)n(-c3ccccc3)c(=O)c12` stands at most 1 nM.
In the case of `CC[C@H](Nc1nc(N)nc(N)c1C#N)c1nc2cccc(F)c2c(=O)n1-c1cccc(C(F)(F)F)c1` it was 10 to 50 nM; in that of `C[C@H](Nc1nc(N)nc(N)c1C#N)c1nc2c(F)cccc2c(=O)n1-c1cc(F)cc(F)c1`, 1 to 10 nM; in that of `Cc1ccc(F)c2c(=O)n(-c3cc(F)cc(F)c3)c([C@H](C)Nc3nc(N)nc(N)c3C#N)nc12`, 1 to 10 nM.
For `C[C@H](Nc1nc(N)nc(N)c1C#N)c1nc2cccc(F)c2c(=O)n1-c1cccc(C#N)c1`, the IC50 was in the range of 10 to 50 nM.
Under `C[C@H](Nc1nc(N)nc(N)c1C#N)c1nc2c(C(F)F)cccc2c(=O)n1-c1cc(F)cc(F)c1` stands 10 to 50 nM.
As to `CC[C@H](Nc1nc(N)nc(N)c1C#N)c1nc2cccc(F)c2c(=O)n1-c1cc(F)cc(C(F)F)c1`, the IC50 lay in the range of 10 to 50 nM.
In the case of `C[C@H](Nc1nc(N)nc(N)c1C#N)c1nc2ccccc2c(=O)n1-c1cc(F)cc(F)c1` it was 10 to 50 nM.
In the case of `Cc1ccc(Cl)c2c(=O)n(-c3cc(F)cc(F)c3)c([C@H](C)Nc3nc(N)nc(N)c3C#N)nc12` it was 1 to 10 nM; in that of `C[C@H](Nc1nc(N)nc(N)c1C#N)c1nc2cccc(Cl)c2c(=O)n1-c1cc(F)cc(Cl)c1`, 1 to 10 nM.
Under `C[C@H](Nc1nc(N)nc(N)c1C#N)c1nc2cccc(S(C)(=O)=O)c2c(=O)n1-c1cc(F)cc(F)c1` stands 1 to 10 nM; under `CC[C@H](Nc1nc(N)nc(N)c1C#N)c1nc2ccc(F)cc2c(=O)n1-c1cccc(F)c1`, 1 to 10 nM.
Turning to `C[C@H](Nc1nc(N)nc(N)c1C#N)c1nc2ccc(F)c(Cl)c2c(=O)n1-c1cc(F)cc(F)c1`, the IC50 is 1 to 10 nM.
Under `C[C@H](Nc1nc(N)nc(N)c1C#N)c1nc2cccc(F)c2c(=O)n1-c1cccc(C(F)(F)F)c1` stands 1 to 10 nM.
In the case of `CC[C@H](Nc1nc(N)nc(N)c1C#N)c1nc2ccc(F)cc2c(=O)n1-c1cc(F)cc(F)c1` it was 10 to 50 nM; in that of `C[C@H](Nc1nc(N)nc(N)c1C#N)c1nc2c(Cl)ccc(Cl)c2c(=O)n1-c1cc(F)cc(F)c1`, 1 to 10 nM.
Under `C[C@H](Nc1nc(N)nc(N)c1C#N)c1nc2cccc(C#N)c2c(=O)n1-c1cc(F)cc(C(F)F)c1` stands 10 to 50 nM; under `Cc1cccc2c(=O)n(-c3cccc(Cl)c3)c([C@H](C)Nc3nc(N)nc(N)c3C#N)nc12`, at most 1 nM; under `CC[C@H](Nc1nc(N)nc(N)c1C#N)c1nc2cccc(Cl)c2c(=O)n1-c1cc(F)cc(C(F)F)c1`, 1 to 10 nM.
`CC[C@H](Nc1nc(N)nc(N)c1C#N)c1nc2c(F)ccc(F)c2c(=O)n1-c1ccccc1` returned an IC50 of 1 to 10 nM.
In the case of `C[C@H](Nc1nc(N)nc(N)c1C#N)c1nc2cccc(F)c2c(=O)n1-c1cccc(CC(F)F)c1` it was 1 to 10 nM; in that of `CC[C@H](Nc1nc(N)nc(N)c1C#N)c1nc2c(Cl)cccc2c(=O)n1-c1cc(F)cc(F)c1`, 10 to 50 nM.
`C[C@H](Nc1nc(N)nc(N)c1C(N)=O)c1nc2cccc(Cl)c2c(=O)n1-c1cccc(C(F)F)c1` had a half-inhibitory concentration (IC50) of 1 to 10 nM.
Under `C[C@H](Nc1nc(N)nc(N)c1C#N)c1nc2cccc(Cl)c2c(=O)n1-c1cccc(C(F)F)c1` stands at most 1 nM.
Under `C[C@H](Nc1nc(N)nc(N)c1C#N)c1nc2cccc(C(F)F)c2c(=O)n1-c1cc(F)cc(F)c1` stands 1 to 10 nM; under `C[C@H](Nc1nc(N)nc(N)c1C#N)c1nc2cccc(Cl)c2c(=O)n1-c1cc(C(F)F)cc(C(F)F)c1`, 1 to 10 nM.
Under `C[C@H](Nc1nc(N)nc(N)c1C#N)c1nc2c(F)ccc(F)c2c(=O)n1-c1cccc(C#N)c1` stands 10 to 50 nM; under `COc1cccc2nc([C@H](C)Nc3nc(N)nc(N)c3C#N)n(-c3ccccc3)c(=O)c12`, 10 to 50 nM.
In turn, `C[C@H](Nc1nc(N)nc(N)c1C(N)=O)c1nc2cccc(Cl)c2c(=O)n1-c1cc(F)cc(F)c1` yielded an IC50 of 1 to 10 nM.
`COc1cc(-n2c([C@H](C)Nc3nc(N)nc(N)c3C#N)nc3cccc(Cl)c3c2=O)ccc1F`: the IC50 is 1 to 10 nM.
Under `Cc1ccc(F)c2nc([C@H](C)Nc3nc(N)nc(N)c3C#N)n(-c3cccc(C#N)c3)c(=O)c12` stands at most 1 nM.
Under `COc1cc(-n2c([C@H](C)Nc3nc(N)nc(N)c3C#N)nc3cccc(Cl)c3c2=O)ccc1C` stands 10 to 50 nM; under `C[C@H](Nc1nc(N)nc(N)c1C#N)c1nc2c(F)ccc(C#N)c2c(=O)n1-c1cc(F)cc(F)c1`, 10 to 50 nM; under `C[C@H](Nc1nc(N)nc(N)c1C#N)c1nc2cccc(F)c2c(=O)n1-c1cc(F)cc(C(F)F)c1`, 10 to 50 nM.
In the case of `C[C@H](Nc1nc(N)nc(N)c1C#N)c1nc2cccc(F)c2c(=O)n1-c1cccc(C(F)F)c1`, the IC50 lay in the range of 1 to 10 nM.
In the case of `C[C@H](Nc1nc(N)nc(N)c1C#N)c1nc2cccc(C(F)F)c2c(=O)n1-c1cc(F)cc(C(F)F)c1` it was 1 to 10 nM; in that of `C[C@H](Nc1nc(N)nc(N)c1C#N)c1cc2cccc(Cl)c2c(=O)n1-c1ccccc1`, at most 1 nM.
Under `CC[C@H](Nc1nc(N)nc(N)c1C#N)c1nc2ccc(F)c(F)c2c(=O)n1-c1cc(F)cc(F)c1` stands 10 to 50 nM.

The term IC50 denotes the concentration that inhibits the measured activity by half. Lower therefore signals higher potency.
